Where a SMILES comes first, the peptide text is derived from it. [ ]: non-standard residue; d: D form. Phe(4-Br) = N[C@@H](Cc1ccc(Br)cc1)C(=O)O; NMeL = CN[C@@H](CC(C)C)C(=O)O; Nle = CCCC[C@H](N)C(=O)O; Aib = CC(C)(N)C(=O)O
Experiments:
[1] = molecular target: NEP (Homo sapiens, UniProt P08473); test: Neprilysin degradation assay (LC-MS, quantitative); settings: 37° C.
[2] = molecular target: Human plasma kallikrein KLKB1 (Homo sapiens, UniProt P03952); test: Plasma kallikrein KLKB1 qualitative cleavage assay (MALDI-TOF); settings: KLKB1, 37° C., first degradation products by MALDI-TOF
Chain of Human plasma kallikrein KLKB1 (P03952 20-638): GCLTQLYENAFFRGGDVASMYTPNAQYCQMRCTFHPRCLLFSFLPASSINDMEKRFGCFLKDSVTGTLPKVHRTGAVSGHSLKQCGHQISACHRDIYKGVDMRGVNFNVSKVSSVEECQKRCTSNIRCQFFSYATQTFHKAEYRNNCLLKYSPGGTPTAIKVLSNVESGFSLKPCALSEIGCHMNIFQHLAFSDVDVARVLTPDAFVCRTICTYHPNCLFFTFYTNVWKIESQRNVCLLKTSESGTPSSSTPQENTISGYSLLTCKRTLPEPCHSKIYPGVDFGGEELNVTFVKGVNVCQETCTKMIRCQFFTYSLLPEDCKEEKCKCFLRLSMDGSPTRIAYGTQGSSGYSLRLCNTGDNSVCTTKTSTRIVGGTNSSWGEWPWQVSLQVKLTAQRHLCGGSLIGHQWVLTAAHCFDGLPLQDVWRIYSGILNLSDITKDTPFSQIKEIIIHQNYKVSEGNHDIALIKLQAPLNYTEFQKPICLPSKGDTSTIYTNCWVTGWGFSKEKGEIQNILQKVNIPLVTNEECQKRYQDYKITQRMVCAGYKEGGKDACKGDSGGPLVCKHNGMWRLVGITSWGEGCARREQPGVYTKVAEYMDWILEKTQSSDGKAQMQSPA

[3] = molecular target: T1, KLKB1 (plasma kallikrein) (Homo sapiens, UniProt P03952); test: In vitro KLKB1 stability (half-life); type: in vitro ADME; settings: human
T1 construct: purchased Novoprotein
T1 sequence (P03952 20-638): as above

[4] = molecular target: neprilysin (NEP) (Homo sapiens, UniProt P08473); test: in vitro; settings: human, pH 7.5
Chain of neprilysin (NEP) (P08473 whole entry): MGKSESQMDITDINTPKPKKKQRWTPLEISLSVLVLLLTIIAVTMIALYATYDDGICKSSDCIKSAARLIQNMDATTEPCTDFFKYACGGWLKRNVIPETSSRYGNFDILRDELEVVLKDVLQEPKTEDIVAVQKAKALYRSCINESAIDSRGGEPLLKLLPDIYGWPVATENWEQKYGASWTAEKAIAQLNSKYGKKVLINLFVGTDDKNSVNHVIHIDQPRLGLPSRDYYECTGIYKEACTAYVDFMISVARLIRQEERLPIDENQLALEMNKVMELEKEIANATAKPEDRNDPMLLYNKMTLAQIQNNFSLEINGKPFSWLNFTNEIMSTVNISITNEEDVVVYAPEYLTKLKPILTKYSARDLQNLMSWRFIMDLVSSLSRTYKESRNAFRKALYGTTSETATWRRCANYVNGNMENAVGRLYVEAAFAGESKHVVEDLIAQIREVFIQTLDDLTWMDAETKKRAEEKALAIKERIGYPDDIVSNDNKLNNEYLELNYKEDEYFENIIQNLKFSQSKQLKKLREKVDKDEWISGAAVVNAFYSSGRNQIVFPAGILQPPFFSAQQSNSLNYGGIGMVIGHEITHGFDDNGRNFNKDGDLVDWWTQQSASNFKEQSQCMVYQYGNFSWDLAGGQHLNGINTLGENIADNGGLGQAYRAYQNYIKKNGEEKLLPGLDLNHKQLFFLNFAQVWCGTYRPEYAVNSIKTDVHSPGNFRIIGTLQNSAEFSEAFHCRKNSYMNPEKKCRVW

[5] = in vitro; settings: human, plasma
[6] = system: C57BL/6 mice; test: Cardiac allograft vasculopathy, heterotopic heart transplant; type: in vivo; settings: male hearts into female B6 mice, 3 mg/kg/d intraperitoneal for 4 weeks from 2 weeks after transplant
Method: B6 male hearts were transplanted heterotopically into […] female B6 of the recipient mice, starting 2 weeks after transplant. Synthesized apelin peptide (Apelin-NMe17A2) (11), was given by daily intraperitoneal injection (3 mg/kg/d) for 4 weeks. Female mice raise immune response against the male HY antigen, injure the coronary arteries of the transplanted heart based on Verhoeff-Van Gieson staining (FIG. 17) leading to progressive expansion of the arterial intima occluding the arterial lumen (FIG. 18).
C57BL/6J mice were purchased from Jackson Laboratories. The C57BL/6 mice subjected to surgery were 11-14 weeks old. All animal experiments were carried out according to the Canadian Council on Animal Care Guidelines. Animal protocols were approved by the Animal Care and Use Committee at the University of Alberta. Hearts from 12-14 weeks male wild-type (WT) donors were transplanted heterotopically to the abdomen of the female WT recipients. […] Cardiac allograft vasculopathy (CAV) was induced due to the presence of HY-minor histocompatibility antigen-directed, cell-mediated allo-immune response against the male donor hearts. The heart grafts were harvested six weeks after transplantation. Intima area, endothelial loss in medium to large-sized arteries, inflammatory cellular infiltration, microvasculature density and tip cell markers using Immunohistochemistry and qPCR were characterized.

Chain of NEP (P08473 whole entry): as above

| Compound | t1/2 (rhNEP, h) ([1]; rhNEP 3.1 nM) [h] | in vitro NEP proteolytic stability (in words) ([1]; rhNEP, up to 72 h, LC-MS) | Degradation Onset Timepoint with KLKB1 [2] [min] | half-life [3] [min] | half-life [4] [min] | remaining at 0.5 h, 80 µM [5] [%] | remaining at 1 h, 80 µM [5] [%] | transplant arteriopathy (intima/lumen of coronary arteries) [6] |
| --- | --- | --- | --- | --- | --- | --- | --- | --- |
| CSCC[C@H](NC(=O)[C@@H]1CCCN1C(=O)CNC(=O)[C@H](CCCCN)NC(=O)[C@H](Cc1cnc[nH]1)NC(=O)[C@H](CO)NC(=O)[C@H](CC(C)C)NC(=O)[C@H](CCCNC(=N)N)NC(=O)[C@@H]1CCCN1C(=O)[C@H](CCCNC(=N)N)NC(=O)[C@H](CCC(N)=O)NC(=O)[C@H](CCCNC(=N)N)NC(=O)[C@H](CCCNC(=N)N)NC(=O)[C@H](Cc1ccccc1)NC(=O)[C@@H](N)CCCCN)C(=O)N1CCC[C@H]1C(=O)N[C@@H](Cc1ccccc1)C(=O)O [Peptide 2, reference compound] | 0.4 | degraded by NEP at rates comparable to those previously reported | <30 | – | – | – | – | – |
| CCCC[C@H](NC(=O)[C@@H]1CCCN1C(=O)CNC(=O)[C@H](CCCCN)NC(=O)[C@H](Cc1c[nH]cn1)NC(=O)[C@H](CO)NC(=O)[C@H](CC(C)C)N(C)C(=O)[C@H](CCCNC(=N)N)NC(=O)[C@@H]1CCCN1C(=O)[C@H](CCCNC(=N)N)NC(=O)[C@H](CCC(N)=O)NC(=O)[C@H](CCCNC(=N)N)NC(=O)[C@H](CCCNC(=N)N)NC(=O)[C@H](Cc1ccccc1)NC(=O)[C@@H](N)CCCCN)C(=O)NC(C)(C)C(=O)N[C@@H](Cc1ccc(Br)cc1)C(=O)O [Peptide 11] (H-KFRRQRPR[NMeL]SHKGP[Nle][Aib][Phe(4-Br)]-OH; C-terminus assumed) | – | – | – | 54 | > 1800 | 49 ± 10 | 47 ± 7 | mitigates arteriopathy |

From US10640545B2 (THE GOVERNORS OF THE UNIVERSITY OF ALBERTA, priority 2017, dated 2020)
